One data set has as its system GA of HeLa cells. Description: CLSM / single cell imaging of fluorescence accumulation at Golgi apparatus. The data set is classed as cell-based, Homo sapiens. The settings on record: for accumulation at / targeting of GA (in words): CLSM, fluorescence at GA, Figures S16, S30A, S33, S35-S44; for effect of thioesterase inhibitor on GA accumulation of C6-NBD-Ceramide: Figures S11, S12; for effect of thioesterase inhibitor on accumulation of 1 at GA: by itself or in combination, Figures S4, S9, S10.

The test system of another data set is NRAS. Description: ICC staining of NRAS distribution in MCF-7 cells. The settings on record: MCF-7, 10 μM, 30 min, ICC staining with NRAS antibody, Figure 3C. The data set is classed as cell-based, Homo sapiens.
The subject of data set [1] is GA of HeLa, Saos-2, HEK293, MCF-7, HS-5, SJSA-1, HepG2, B16F10, S2 cells. As to the kind of experiment: CLSM of GA targeting in various cell lines. The data set is classed as cell-based, Homo sapiens, Mus musculus, Drosophila. The following applies: 10 μM, 8 min, Figure 2B.
For the next data set, the target named is T1, carboxylesterase (CES1) (Homo sapiens, UniProt P23141).
T1 sequence (P23141 18-567): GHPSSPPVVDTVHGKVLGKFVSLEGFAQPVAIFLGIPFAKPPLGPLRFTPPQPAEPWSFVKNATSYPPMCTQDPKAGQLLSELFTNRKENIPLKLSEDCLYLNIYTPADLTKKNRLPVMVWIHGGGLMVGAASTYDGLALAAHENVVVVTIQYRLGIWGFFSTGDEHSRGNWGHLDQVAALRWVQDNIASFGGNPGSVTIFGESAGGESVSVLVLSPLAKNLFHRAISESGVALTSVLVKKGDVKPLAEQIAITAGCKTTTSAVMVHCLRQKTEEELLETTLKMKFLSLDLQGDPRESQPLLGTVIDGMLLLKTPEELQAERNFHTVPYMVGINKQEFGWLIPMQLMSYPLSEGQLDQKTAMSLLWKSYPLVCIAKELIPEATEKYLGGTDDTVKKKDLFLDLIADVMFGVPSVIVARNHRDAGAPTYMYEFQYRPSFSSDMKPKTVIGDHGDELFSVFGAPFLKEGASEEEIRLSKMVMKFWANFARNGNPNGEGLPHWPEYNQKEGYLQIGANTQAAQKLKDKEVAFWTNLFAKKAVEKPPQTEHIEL
As to the kind of experiment: Cell free hydrolysis by carboxylesterase. The data set is classed as biochemical. The settings on record: cell free assay, Figure S13.

Data set [2] deals with neutrophils (polymorphonuclear leukocytes). Description: GA localization in primary cells. The data set is classed as cell-based. The settings on record: Figure S24.
A short description of data set [3]: Critical micelle concentration. The settings on record: Figure 1C. The data set is classed as physicochemical.
A further data set in a line: TEM of self-assembly. The class given is physicochemical. The following applies: 20 μM, Figure S43.

SMILES strings stand for the structures. Where only a bound is given, the exact number is not on record here.

As to `CCCCCCCCCCCCC/C=C/[C@@H](O)[C@H](CO)NC(=O)CCCCCNc1ccc([N+](=O)[O-])c2nonc12` [C6-NBD-ceramide, C6-NBD-Ceramide, reference compound], the “accumulation at / targeting of GA (in words)” value in the data set on GA of HeLa cells is listed as “shows dim fluorescence over 16 minutes”.
For `CC(=O)SCCNC(=O)[C@@H](Cc1ccccc1)NC(=O)[C@@H](Cc1ccccc1)NC(=O)CCNc1ccc([N+](=O)[O-])c2nonc12` [compound 1], in the data set with NRAS, the “intracellular distribution of NRAS after pretreatment (in words)” value was “relocates from mainly plasma membrane to overwhelmingly GA”. The “accumulation at / targeting of GA (in words)” value in the data set on GA of HeLa cells is recorded as “accumulates primarily at GA”. Moreover, the “time after addition until GA becomes distinguishable” value with GA of HeLa cells (Figures S1, S2, video S1) is reported as “less than 1 min”. Further, in the data set on GA of HeLa cells (HeLa treated with chlorpromazine, 2 μM of 1, Figure S8), the “dependence on clathrin-mediated endocytosis at 2 μM” value is “hardly”. Further, the “dependence on clathrin-mediated endocytosis at 10 μM” value in the data set with GA of HeLa cells (HeLa treated with chlorpromazine, 10 μM of 1, Figure S8) is given as “only slightly”. Besides, the “time until fluorescence plateaus outside GA” value in the data set with GA of HeLa cells (HeLa, 10 μM, 60 min, single cell imaging analysis, Figure 1B) is over 45 min. The “enhancement of fluorescence intensity at GA from 1 minute to 8 minutes” value in the data set on GA of HeLa cells (HeLa, Figure S15) is recorded as “at least 3 times”. Moreover, the “targeting GA of various cells (in words)” value in data set [1] is reported as “able to target GA of various cells from different organisms”. The “hydrolysis by carboxylesterase (CES1) (in words)” value on carboxylesterase (CES1) is “able to catalyze the hydrolysis of 1”. The “entry into primary cells and localization (in words)” value in data set [2] is “localizes at GA”. Moreover, the “critical micelle concentration (CMC)” value in data set [3] turned out to be 2.1 µM. Moreover, the “self-assembly seen by TEM (in words)” value in “TEM of self-assembly” was “self-assembles into nanoparticles and nanofibers”.
Take `CN(CCCCCCNc1ccnc2cc(Cl)ccc12)CCCCCCNc1ccnc2cc(Cl)ccc12` [DC661, reference compound]: in the data set with GA of HeLa cells, the “effect of thioesterase inhibitor on GA accumulation of C6-NBD-Ceramide” value is “cannot block the GA accumulation” and the “effect of thioesterase inhibitor on accumulation of 1 at GA” value was “efficiently block 1 accumulating at GA”.
The corresponding values for `CC(C)(C)C1CCN(C(=O)n2ncc(C(O)(c3ccccc3)c3ccccc3)n2)CC1` [ML211, reference compound] are “cannot block the GA accumulation” and “efficiently block 1 accumulating at GA”.

For the origin of these results see publication PMC9069992 (Journal of the American Chemical Society, 2022).
